According to patent US10508085B2, “Compounds and methods for IDO and TDO modulation, and indications therefor” (Plexxikon Inc., priority 2016, dated 2019):

Legend:
[1] = molecular target: T1, Human Indoleamine 2,3-dioxygenase (IDO) (Homo sapiens, UniProt P14902); assay: Human IDO enzymatic assay (kynurenine level); type: biochemical; conditions: 6 nM IDO, 10 μM L-Trp; geometric mean; read-out: IDO1 GMean: IC50 (μM) (Biochemical Assay)
T1 construct: His tag (N); made in house; host or cells: E. coli
How it was run: (§1)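 N-terminally His-tagged enzymes expressed in E. coli were run in 50 mM sodium phosphate pH 6.5 with 10 mM ascorbate, catalase and Tween 20. IDO: 6 nM enzyme, 10 μM L-Trp, 5 μM methylene blue, 20 min RT. TDO: 1 nM enzyme, 350 μM L-Trp, 0.4 μM methylene blue, 70 min RT.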

[2] = molecular target: T2, Human Tryptophan 2,3-dioxygenase (TDO) (Homo sapiens, UniProt P48775); assay: Human TDO enzymatic assay (kynurenine level); type: biochemical; conditions: 1 nM TDO, 350 μM L-Trp; geometric mean; read-out: TDO GMean: IC50 (μM) (Biochemical Assay)
T2 construct: His tag (N); made in house; host or cells: E. coli
How it was run: as §1

T2 sequence (P48775 whole entry): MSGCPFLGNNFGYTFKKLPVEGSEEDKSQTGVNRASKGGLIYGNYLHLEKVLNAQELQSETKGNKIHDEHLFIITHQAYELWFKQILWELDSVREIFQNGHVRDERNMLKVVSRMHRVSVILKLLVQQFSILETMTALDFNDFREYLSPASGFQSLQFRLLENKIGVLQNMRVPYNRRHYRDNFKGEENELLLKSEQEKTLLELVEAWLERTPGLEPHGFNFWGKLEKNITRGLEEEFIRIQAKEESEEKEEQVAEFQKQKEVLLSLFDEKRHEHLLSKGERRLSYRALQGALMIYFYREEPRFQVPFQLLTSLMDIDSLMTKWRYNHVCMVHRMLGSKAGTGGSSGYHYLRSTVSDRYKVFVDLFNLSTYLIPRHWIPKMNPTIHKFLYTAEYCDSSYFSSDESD
T1 sequence (P14902 whole entry): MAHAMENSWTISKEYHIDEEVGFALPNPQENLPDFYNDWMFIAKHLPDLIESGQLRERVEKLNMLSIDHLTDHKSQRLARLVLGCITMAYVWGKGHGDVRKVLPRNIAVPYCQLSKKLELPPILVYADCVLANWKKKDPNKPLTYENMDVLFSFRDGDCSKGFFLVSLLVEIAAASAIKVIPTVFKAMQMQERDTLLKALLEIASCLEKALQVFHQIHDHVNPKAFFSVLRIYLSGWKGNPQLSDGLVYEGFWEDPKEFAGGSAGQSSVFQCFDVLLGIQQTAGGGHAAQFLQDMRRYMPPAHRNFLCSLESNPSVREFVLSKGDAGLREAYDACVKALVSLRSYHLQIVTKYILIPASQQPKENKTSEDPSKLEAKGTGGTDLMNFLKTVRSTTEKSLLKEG

CC(C)(C1CCN(C(=O)C2(F)CC2)CC1)C(O)c1cc(Cl)cc2[nH]ncc12 (stereo not shown) [Compound P-0661, (4-(1-(6-chloro-1H-indazol-4-yl)-1-hydroxy-2-methylpropan-2-yl)piperidin-1-yl)(1-fluorocyclopropyl) methanone]
IC50 [1]: 0.0001 to 10 µM | IC50 [2]: 0.0001 to 10 µM

CC(C)(C1CCN(C(=O)NCC2(C#N)CC2)CC1)[C@H](O)c1cc(Cl)cc2cn[nH]c12 [Compound P-0675, (S)-4-(1-(5-chloro-1H-indazol-7-yl)-1-hydroxy-2-methylpropan-2-yl)-N-((1-cyanocyclopropyl)methyl)piperidine-1-carboxamide]
IC50 [1]: 0.0001 to 10 µM | IC50 [2]: 0.0001 to 10 µM

CC(C)(C1CCN(C(=O)NCc2ccc(F)cc2)CC1)[C@H](O)c1cc(Cl)cc2cn[nH]c12 [Compound P-0602, (S)-4-(1-(5-chloro-1H-indazol-7-yl)-1-hydroxy-2-methylpropan-2-yl)-N-(4-fluorobenzyl) piperidine-1-carboxamide]
IC50 [1]: 0.0001 to 10 µM | IC50 [2]: 0.0001 to 10 µM

CC(C)(C1CCN(C(=O)N[C@@H]2CCOC2)CC1)[C@H](O)c1cc(Cl)cc2cn[nH]c12 [Compound P-0593, 4-((S)-1-(5-chloro-1H-indazol-7-yl)-1-hydroxy-2-methylpropan-2-yl)-N-((R)-tetrahydrofuran-3-yl)piperidine-1-carboxamide]
IC50 [1]: 0.0001 to 10 µM | IC50 [2]: 0.0001 to 10 µM

OC(c1cccc(F)c1)c1cccc2cncn12 (stereo not shown) [Compound P-0068, (3-fluorophenyl)(imidazo[1,5-a]pyridin-5-yl)methanol]
IC50 [1]: 0.0001 to 10 µM | IC50 [2]: 0.0001 to 10 µM

CC(C)(C1CCN(C(=O)Nc2ccc(F)cn2)CC1)[C@H](O)c1cc(Cl)cc2cn[nH]c12 [Compound P-0658, (S)-4-(1-(5-chloro-1H-indazol-7-yl)-1-hydroxy-2-methylpropan-2-yl)-N-(5-fluoropyridin-2-yl)piperidine-1-carboxamide]
IC50 [1]: 0.0001 to 10 µM | IC50 [2]: 0.0001 to 10 µM

CONC(=O)N1CCC(C(C)(C)[C@H](O)c2cc(Cl)cc3cn[nH]c23)CC1 [Compound P-0598, (S)-4-(1-(5-chloro-1H-indazol-7-yl)-1-hydroxy-2-methylpropan-2-yl)-N-methoxypiperidine-1-carboxamide]
IC50 [1]: 0.0001 to 10 µM | IC50 [2]: 0.0001 to 10 µM

CC(C)(C1CCN(C(=O)NCCCF)CC1)[C@H](O)c1cc(Cl)cc2cn[nH]c12 [Compound P-0596, (S)-4-(1-(5-chloro-1H-indazol-7-yl)-1-hydroxy-2-methylpropan-2-yl)-N-(3-fluoropropyl) piperidine-1-carboxamide]
IC50 [1]: 0.0001 to 10 µM | IC50 [2]: 0.0001 to 10 µM

OC(c1ccccc1Cl)c1cccc2cncn12 (stereo not shown) [Compound P-0077, (2-chlorophenyl)(imidazo[1,5-a]pyridin-5-yl)methanol]
IC50 [1]: > 200 µM | IC50 [2]: 10 to 100 µM

CN(C)C(=O)N1CCC(C(C)(C)[C@H](O)c2cc(Cl)cc3cn[nH]c23)CC1 [Compound P-0662, (S)-4-(1-(5-chloro-1H-indazol-7-yl)-1-hydroxy-2-methylpropan-2-yl)-N,N-dimethylpiperidine-1-carboxamide]
IC50 [1]: 0.0001 to 10 µM | IC50 [2]: 0.0001 to 10 µM

O=C(c1cccnc1)N1CCC(C(F)(F)[C@H](O)c2c3c(cc4cn[nH]c24)CC3)CC1 [Compound P-0619, (R)-(4-(2-(5,6-dihydro-1H-cyclobuta[f]indazol-7-yl)-1,1-difluoro-2-hydroxyethyl)piperidin-1-yl) (pyridin-3-yl)methanone]
IC50 [1]: 0.0001 to 10 µM | IC50 [2]: 0.0001 to 10 µM

O=C(CN1CCOCC1)N1CCC(C(F)(F)[C@H](O)c2c3c(cc4cn[nH]c24)CC3)CC1 [Compound P-0622, (R)-1-(4-(2-(5,6-dihydro-1H-cyclobuta[f]indazol-7-yl)-1,1-difluoro-2-hydroxyethyl)piperidin-1-yl)-2-morpholinoethan-1-one]
IC50 [1]: 0.0001 to 10 µM | IC50 [2]: 0.0001 to 10 µM

CC(C)(C1CCN(C(=O)NCc2cnccn2)CC1)[C@H](O)c1cc(Cl)cc2cn[nH]c12 [Compound P-0680, (S)-4-(1-(5-chloro-1H-indazol-7-yl)-1-hydroxy-2-methylpropan-2-yl)-N-(pyrazin-2-ylmethyl)piperidine-1-carboxamide]
IC50 [1]: 0.0001 to 10 µM | IC50 [2]: 0.0001 to 10 µM

CC(C)(C1CCN(C(=O)Nc2ccc(Cl)nc2)CC1)C(O)c1cc(Cl)cc2cn[nH]c12 (stereo not shown) [Compound P-0604, 4-(1-(5-chloro-1H-indazol-7-yl)-1-hydroxy-2-methylpropan-2-yl)-N-(6-chloropyridin-3-yl)piperidine-1-carboxamide]
IC50 [1]: 0.0001 to 10 µM | IC50 [2]: 0.0001 to 10 µM

CC(C)(C1CCN(C(=O)N[C@@H]2CC[C@@H](O)C2)CC1)[C@H](O)c1cc(Cl)cc2cn[nH]c12 [Compound P-0591, 4-((S)-1-(5-chloro-1H-indazol-7-yl)-1-hydroxy-2-methylpropan-2-yl)-N-((1R,3R)-3-hydroxycyclopentyl) piperidine-1-carboxamide]
IC50 [1]: 0.0001 to 10 µM | IC50 [2]: 0.0001 to 10 µM

O=C(Cc1ccnc(Cl)c1)N1CCC(C(F)(F)[C@H](O)c2cc(Cl)cc3cn[nH]c23)CC1 [Compound P-0576, (R)-1-(4-(2-(5-chloro-1H-indazol-7-yl)-1,1-difluoro-2-hydroxyethyl)piperidin-1-yl)-2-(2-chloropyridin-4-yl)ethan-1-one]
IC50 [1]: 0.0001 to 10 µM | IC50 [2]: 0.0001 to 10 µM

OC(c1cccc(OCc2ccccc2)c1)c1cccc2cncn12 (stereo not shown) [Compound P-0071]
IC50 [1]: 0.0001 to 10 µM | IC50 [2]: 10 to 100 µM

OC(c1cccc(N2CCCCC2)c1)c1cccc2cncn12 (stereo not shown) [Compound P-0073, imidazo[1,5-a]pyridin-5-yl(3-(piperidin-1-yl)phenyl)methanol]
IC50 [1]: 0.0001 to 10 µM | IC50 [2]: 10 to 100 µM

CC(C)(C1CCN(C(=O)C2(F)CC2)CC1)[C@H](O)c1cc(Cl)cc2cn[nH]c12 [Compound P-0659, (S)-(4-(1-(5-chloro-1H-indazol-7-yl)-1-hydroxy-2-methylpropan-2-yl)piperidin-1-yl)(1-fluorocyclopropyl) methanone]
IC50 [1]: 0.0001 to 10 µM | IC50 [2]: 0.0001 to 10 µM

CC1(C)C(C(=O)N2CCC(C(F)(F)[C@H](O)c3c4c(cc5cn[nH]c35)CC4)CC2)C1(C)C [Compound P-0616, (R)-(4-(2-(5,6-dihydro-1H-cyclobuta[f]indazol-7-yl)-1,1-difluoro-2-hydroxyethyl)piperidin-1-yl)(2,2,3,3-tetramethylcyclopropyl) methanone]
IC50 [1]: 0.0001 to 10 µM | IC50 [2]: 10 to 100 µM

CC(C)(C1CCN(C(=O)NCC(=O)O)CC1)[C@H](O)c1cc(Cl)cc2cn[nH]c12 [Compound P-0673, (S)-(4-(1-(5-chloro-1H-indazol-7-yl)-1-hydroxy-2-methylpropan-2-yl)piperidine-1-carbonyl)glycine]
IC50 [1]: 0.0001 to 10 µM | IC50 [2]: 0.0001 to 10 µM

O=C(CC1CCOCC1)N1CCC(C(F)(F)[C@H](O)c2c3c(cc4cn[nH]c24)CC3)CC1 [Compound P-0617, (R)-1-(4-(2-(5,6-dihydro-1H-cyclobuta[f]indazol-7-yl)-1,1-difluoro-2-hydroxyethyl)piperidin-1-yl)-2-(tetrahydro-2H-pyran-4-yl)ethan-1-one]
IC50 [1]: 0.0001 to 10 µM | IC50 [2]: 0.0001 to 10 µM

COCC(=O)N1CCC(C(F)(F)[C@H](O)c2c3c(cc4cn[nH]c24)CC3)CC1 [Compound P-0614, (R)-1-(4-(2-(5,6-dihydro-1H-cyclobuta[f]indazol-7-yl)-1,1-difluoro-2-hydroxyethyl)piperidin-1-yl)-2-methoxyethan-1-one]
IC50 [1]: 0.0001 to 10 µM | IC50 [2]: 0.0001 to 10 µM

O=C(NCC1CC1)N1CCC(C(F)(F)[C@H](O)c2c3c(cc4cn[nH]c24)CC3)CC1 [Compound P-0631, (R)-N-(cyclopropylmethyl)-4-(2-(5,6-dihydro-1H-cyclobuta[f]indazol-7-yl)-1,1-difluoro-2-hydroxyethyl) piperidine-1-carboxamide]
IC50 [1]: 0.0001 to 10 µM | IC50 [2]: 0.0001 to 10 µM

O=C(Cc1ccnc(Cl)c1)N1CCC(C(F)(F)C(O)c2cc(Cl)cc3[nH]ncc23)CC1 (stereo not shown) [Compound P-0657, 1-(4-(2-(6-chloro-1H-indazol-4-yl)-1,1-difluoro-2-hydroxyethyl)piperidin-1-yl)-2-(2-chloropyridin-4-yl)ethan-1-one]
IC50 [1]: 0.0001 to 10 µM | IC50 [2]: 0.0001 to 10 µM

CC(C)(C1CCN(C(=O)NC2CC(F)(F)C2)CC1)[C@H](O)c1cc(Cl)cc2cn[nH]c12 [Compound P-0592, (S)-4-(1-(5-chloro-1H-indazol-7-yl)-1-hydroxy-2-methylpropan-2-yl)-N-(3,3-difluorocyclobutyl) piperidine-1-carboxamide]
IC50 [1]: 0.0001 to 10 µM | IC50 [2]: 0.0001 to 10 µM

CC(C)(C1CCN(C(=O)NCCCC#N)CC1)[C@H](O)c1cc(Cl)cc2cn[nH]c12 [Compound P-0597, (S)-4-(1-(5-chloro-1H-indazol-7-yl)-1-hydroxy-2-methylpropan-2-yl)-N-(3-cyanopropyl) piperidine-1-carboxamide]
IC50 [1]: 0.0001 to 10 µM | IC50 [2]: 0.0001 to 10 µM

CC(C)(C1CCN(C(=O)NCC2(O)COC2)CC1)[C@H](O)c1cc(Cl)cc2cn[nH]c12 [Compound P-0667, (S)-4-(1-(5-chloro-1H-indazol-7-yl)-1-hydroxy-2-methylpropan-2-yl)-N-((3-hydroxyoxetan-3-yl)methyl)piperidine-1-carboxamide]
IC50 [1]: 0.0001 to 10 µM | IC50 [2]: 0.0001 to 10 µM

O=C(CO)N1CCC(C(F)(F)[C@H](O)c2c3c(cc4cn[nH]c24)CC3)CC1 [Compound P-0615, (R)-1-(4-(2-(5,6-dihydro-1H-cyclobuta[f]indazol-7-yl)-1,1-difluoro-2-hydroxyethyl)piperidin-1-yl)-2-hydroxyethan-1-one]
IC50 [1]: 0.0001 to 10 µM | IC50 [2]: 0.0001 to 10 µM
